Experimental data taken from ChEMBL document CHEMBL4680289, “10-(4-Phenylpiperazine-1-carbonyl)acridin-9(10H)-ones and related compounds: Synthesis, antiproliferative activity and inhibition of tubulin polymerization” (Bioorg Med Chem Lett, 2021).
Activity calls are given as the source filed them. No cut-off for these calls is given here.

Legend:
[1] = system: K562; assay: Induction of apoptosis in human K562 cells assessed as viable cells at 0.01 micromol/L measured after 48 hrs by Annexin V-FITC/7-AAD staining based flow cytometric analysis (reference value: 92.85 %); type: functional; conditions: K562, 48 h, dose 0.01 µmol/L, read-out: Activity
[2] = system: K562; assay: Induction of apoptosis in human K562 cells assessed as necrotic cells at 0.1 uM measured after 12 hrs by Annexin V-FITC/7-AAD staining based flow cytometric analysis relative to control; type: functional
[3] = system: K562; assay: Induction of apoptosis in human K562 cells assessed as early apoptotic cells at 0.1 uM measured after 12 hrs by Annexin V-FITC/7-AAD staining based flow cytometric analysis relative to control; type: functional
[4] = system: K562; assay: Induction of apoptosis in human K562 cells assessed as viable cells at 0.1 uM measured after 12 hrs by Annexin V-FITC/7-AAD staining based flow cytometric analysis relative to control; type: functional; conditions: read-out: Activity
[5] = system: K562; assay: Induction of apoptosis in human K562 cells assessed as necrotic cells at 0.1 uM measured after 72 hrs by Annexin V-FITC/7-AAD staining based flow cytometric analysis relative to control; type: functional
[6] = system: K562; assay: Induction of apoptosis in human K562 cells assessed as early apoptotic cells at 0.1 uM measured after 24 hrs by Annexin V-FITC/7-AAD staining based flow cytometric analysis relative to control; type: functional
[7] = system: K562; assay: Induction of apoptosis in human K562 cells assessed as late apoptotic cells at 0.01 micromol/L measured after 48 hrs by Annexin V-FITC/7-AAD staining based flow cytometric analysis (reference value: 2.49 %); type: functional; conditions: dose 0.01 µmol/L, at 0.01 µM
[8] = system: K562; assay: Induction of apoptosis in human K562 cells assessed as early apoptotic cells at 0.01 micromol/L measured after 48 hrs by Annexin V-FITC/7-AAD staining based flow cytometric analysis (reference value: 4.2 %); type: functional; conditions: dose 0.01 µmol/L, at 0.01 µM
[9] = system: K562; assay: Induction of apoptosis in human K562 cells assessed as late apoptotic cells at 0.1 uM measured after 24 hrs by Annexin V-FITC/7-AAD staining based flow cytometric analysis relative to control; type: functional
[10] = system: K562; assay: Induction of apoptosis in human K562 cells assessed as early apoptotic cells at 0.1 uM measured after 72 hrs by Annexin V-FITC/7-AAD staining based flow cytometric analysis relative to control; type: functional
[11] = system: K562; assay: Induction of apoptosis in human K562 cells assessed as viable cells at 0.1 uM measured after 24 hrs by Annexin V-FITC/7-AAD staining based flow cytometric analysis relative to control; type: functional; conditions: read-out: Activity
[12] = system: K562; assay: Induction of apoptosis in human K562 cells assessed as necrotic cells at 0.3 micromol/L measured after 48 hrs by Annexin V-FITC/7-AAD staining based flow cytometric analysis (reference value: 0.46 %); type: functional; conditions: dose 0.3 µmol/L, at 0.3 µM
[13] = molecular target: Tubulin beta (Homo sapiens) (UniProt P68371+Q9H4B7+Q13509+P04350+Q3ZCM7+P07437+Q13885+Q9BVA1+Q9BUF5+A6NNZ2); assay: Inhibition of N,N'-Ethylenebis(iodoacetamide) binding to beta-tubulin colchicine binding site in human K562 cells assessed as reduction in EBI/beta-tubulin adduct formation at 1 to 10 uM preincubated for 2.5 hrs followed by EBI addition and measured after 1.5 hrs by Western blot analysis; type: cell-based; conditions: dose 1-10 µM, time 4.0 hrs
[14] = system: K562; assay: Induction of apoptosis in human K562 cells assessed as viable cells at 1 micromol/L measured after 48 hrs by Annexin V-FITC/7-AAD staining based flow cytometric analysis (reference value: 92.85 %); type: functional; conditions: K562, 48 h, dose 1 µmol/L, read-out: Activity
[15] = system: K562; assay: Induction of apoptosis in human K562 cells assessed as late apoptotic cells at 0.1 micromol/L measured after 48 hrs by Annexin V-FITC/7-AAD staining based flow cytometric analysis (reference value: 2.49 %); type: functional; conditions: dose 0.1 µmol/L, at 0.1 µM
[16] = system: K562; assay: Induction of apoptosis in human K562 cells assessed as early apoptotic cells at 1 micromol/L measured after 48 hrs by Annexin V-FITC/7-AAD staining based flow cytometric analysis (reference value: 4.2 %); type: functional; conditions: dose 1 µmol/L, at 1 µM
[17] = system: K562; assay: Cell cycle arrest in human K562 cells assessed as increase in cell accumulation at G2/M phase at < 30 nM measured after 18 hrs by propidium iodide/RNase FACSCalibur staining based flow cytometry; type: functional; conditions: dose nM <30, time 18.0 hrs
[18] = Inhibition of porcine brain tubulin polymerization assessed as reduction in tubulin assembly at 37 degreeC measured after 40 mins in presence of GTP by turbidimetric analysis; parameters: species or system Sus scrofa
[19] = system: K562; assay: Induction of apoptosis in human K562 cells assessed as necrotic cells at 0.1 micromol/L measured after 48 hrs by Annexin V-FITC/7-AAD staining based flow cytometric analysis (reference value: 0.46 %); type: functional; conditions: dose 0.1 µmol/L, at 0.1 µM
[20] = system: K562; assay: Induction of apoptosis in human K562 cells assessed as late apoptotic cells at 0.1 uM measured after 6 hrs by Annexin V-FITC/7-AAD staining based flow cytometric analysis relative to control; type: functional
[21] = system: K562; assay: Cell cycle arrest in human K562 cells assessed as increase in cell accumulation at G2/M phase measured after 18 hrs by propidium iodide/RNase FACSCalibur staining based flow cytometry; type: functional; conditions: dose 0.003-1 µmol/L
[22] = system: K562; assay: Induction of apoptosis in human K562 cells assessed as viable cells at 0.03 micromol/L measured after 48 hrs by Annexin V-FITC/7-AAD staining based flow cytometric analysis (reference value: 92.85 %); type: functional; conditions: K562, 48 h, dose 0.03 µmol/L, read-out: Activity
[23] = system: K562; assay: Induction of apoptosis in human K562 cells assessed as early apoptotic cells at 0.1 micromol/L measured after 48 hrs by Annexin V-FITC/7-AAD staining based flow cytometric analysis (reference value: 4.2 %); type: functional; conditions: dose 0.1 µmol/L, at 0.1 µM
[24] = system: K562; assay: Induction of apoptosis in human K562 cells assessed as necrotic cells at 1 micromol/L measured after 48 hrs by Annexin V-FITC/7-AAD staining based flow cytometric analysis (reference value: 0.46 %); type: functional; conditions: dose 1 µmol/L, at 1 µM
[25] = system: K562; assay: Induction of apoptosis in human K562 cells assessed as necrotic cells at 0.03 micromol/L measured after 48 hrs by Annexin V-FITC/7-AAD staining based flow cytometric analysis (reference value: 0.46 %); type: functional; conditions: dose 0.03 µmol/L, at 0.03 µM
[26] = system: K562; assay: Induction of apoptosis in human K562 cells assessed as early apoptotic cells at 0.3 micromol/L measured after 48 hrs by Annexin V-FITC/7-AAD staining based flow cytometric analysis (reference value: 4.2 %); type: functional; conditions: dose 0.3 µmol/L, at 0.3 µM
[27] = system: K562; assay: Induction of apoptosis in human K562 cells assessed as viable cells at 0.1 uM measured after 6 hrs by Annexin V-FITC/7-AAD staining based flow cytometric analysis relative to control; type: functional; conditions: read-out: Activity
[28] = system: K562; assay: Induction of apoptosis in human K562 cells assessed as late apoptotic cells at 0.1 uM measured after 12 hrs by Annexin V-FITC/7-AAD staining based flow cytometric analysis relative to control; type: functional
[29] = system: K562; assay: Induction of apoptosis in human K562 cells assessed as late apoptotic cells at 1 micromol/L measured after 48 hrs by Annexin V-FITC/7-AAD staining based flow cytometric analysis (reference value: 2.49 %); type: functional; conditions: dose 1 µmol/L, at 1 µM

Compound: COc1cc(OC)cc(N2CCN(C(=O)n3c4ccccc4c(=O)c4ccccc43)CC2)c1
- viability at 0.01 µM [1]: 88.6%
- Activity [2]: 0.29%
- Activity [3]: 9.02%
- viability at 0.1 µM [4]: 87.8%
- Activity [5]: 4.54%
- Activity [6]: 26.44%
- Activity [7]: 4.85%
- Activity [8]: 6.24%
- Activity [9]: 7.02%
- Activity [10]: 11.57%
- viability at 0.1 µM [11]: 66.3%
- Activity [12]: 0.35%
- inhibition [13]: Active
- viability at 1 µM [14]: 41%
- Activity [15]: 22.22%
- Activity [16]: 27.4%
- Activity [17]: Active
- IC50 [18]: 350 nM
- Activity [19]: 0.33%
- Activity [20]: 3.3%
- Activity [21]: Dose-dependent effect
- viability at 0.03 µM [22]: 52.2%
- Activity [23]: 26.08%
- Activity [24]: 0.35%
- Activity [25]: 0.53%
- Activity [26]: 24.76%
- viability at 0.1 µM [27]: 91.6%
- Activity [28]: 2.86%
- Activity [29]: 31.22%
